Activity calls are given as the source filed them. No cut-off for these calls is given here.
How the values were obtained:
3T3-L1 [1] = test: Anti-adipogenic activity in mouse 3T3-L1 cells at 20 uM relative to control; type: functional; conditions: time 72 hrs
3T3-L1 [2] = test: Cytotoxicity against mouse 3T3-L1 cells assessed as cell viability at 20 uM incubated for 48 hrs by MTT assay; type: toxicity, cell-based; conditions: 3t3-l1, 48 h
3T3-L1 [3] = test: Anti-adipogenic activity in MDI-induced mouse 3T3-L1 cells assessed as suppression of adipogenesis at 0.3 uM by oil red O staining based analysis; type: functional, cell-based; conditions: time 72.0 hrs
3T3-L1 [4] = test: Cytotoxicity against mouse 3T3-L1 cells assessed as cell viability upto 50 uM incubated for 48 hrs by MTT assay; type: toxicity, cell-based; conditions: 3t3-l1, 48 h
3T3-L1 [5] = test: Anti-adipogenic activity in mouse 3T3-L1 cells assessed as reduction in lipid accumulation at 10 uM; type: functional
3T3-L1 [6] = test: Anti-adipogenic activity in mouse 3T3-L1 cells assessed as reduction in lipid accumulation at 10 uM measured at upto 7 days; type: functional, cell-based; conditions: time <= 7.0 day
3T3-L1 [7] = test: Anti-adipogenic activity in mouse 3T3-L1 cells assessed as change in lipid content at 10 uM measured at 3 to 7 days; type: functional, cell-based; conditions: time 3-7 day
3T3-L1 [8] = test: Inhibition of adipogenesis in mouse 3T3-L1 cells assessed as downregulation of FASN expression at 10 uM measured at upto 5 days by immunoblotting analysis; type: functional, cell-based; conditions: time <= 5.0 day
3T3-L1 [9] = test: Inhibition of adipogenesis in mouse 3T3-L1 cells assessed as downregulation of FASN expression at 10 uM measured at upto 7 days by immunoblotting analysis; type: functional, cell-based; conditions: time <= 7.0 day
3T3-L1 [10] = test: Inhibition of adipogenesis in mouse 3T3-L1 cells assessed as downregulation of PPARgamma expression at 10 uM measured at upto 7 days by immunoblotting analysis; type: functional, cell-based; conditions: time <= 7.0 day
3T3-L1 [11] = test: Inhibition of adipogenesis in mouse 3T3-L1 cells assessed as downregulation of CEBPalpha expression at 10 uM measured at upto 7 days by immunoblotting analysis; type: functional, cell-based; conditions: time <= 7.0 day
3T3-L1 [12] = test: Induction of cell cycle arrest in mouse 3T3-L1 cells assessed as reduction in CDK4 level at 10 uM incubated for 16 to 24 hrs by immunoblotting analysis; type: functional, cell-based; conditions: time 16-24 hrs
3T3-L1 [13] = test: Anti-adipogenic activity in mouse 3T3-L1 cells assessed as increase in GSK3beta mRNA expression at 10 uM incubated for 16 to 24 hrs; type: functional, cell-based; conditions: time 16-24 hrs
[14] = Half life in Golden Syrian hamster at 100 mg/kg, po measured upto 24 hrs by LC-MS/MS analysis; type: ADME, organism-based, Mesocricetus auratus; conditions: in vivo
[15] = Toxicity in Golden Syrian hamster assessed as reduction in LDL level in serum at 100 mg/kg, po administered for 7 days; type: organism-based, Mesocricetus auratus; conditions: in vivo, 168 h, time 7 day

Cc1ccc(/C=C/c2ccc(-c3cc(C(=O)O)c4cc(F)ccc4n3)cc2)cc1
Activity (3T3-L1 [1]): 64% | Activity (3T3-L1 [2]): Non-toxic | Activity (3T3-L1 [3]): Active | Activity (3T3-L1 [4]): Non-toxic | inhibition at 10 µM (3T3-L1 [5]): ~50% | Activity (3T3-L1 [6]): Active | Activity (3T3-L1 [7]): Active | inhibition (3T3-L1 [8]): Active | inhibition (3T3-L1 [9]): Active | inhibition (3T3-L1 [10]): Active | inhibition (3T3-L1 [11]): Active | Activity (3T3-L1 [12]): Active | Activity (3T3-L1 [13]): Active | half-life [14]: 3.64 h | Activity [15]: Non-toxic
